Assays:
Format in all cases: physicochemical
[1] = Glass transition temperature (DSC); details: (meth)acrylate compound; DSC 10° C./min
Description: [4] Melting Point (Melt Endothermic Maximum Temperature in Differential Scanning Calorimetry (DSC)) and Glass Transition Temperature
5 mg of a sample was precisely weighed, and taken in an aluminum pan, measurement was performed under the following operation conditions with aluminum oxide as a control using a differential scanning calorimeter (DSC 7020 manufactured by SII NanoTechnology Inc.), and the detected melt endothermic maximum temperature was defined as a melting point. For a sample (amorphous material, resin or the like) in which a melt endothermic peak was not detected, the intersection of tangent lines at an inflection point was defined as a glass transition temperature (Tg).
• Temperature elevation rate: 10° C./min (for bisphenol and (meth)acrylate compound) and 20° C./min (for polyarylate resin) • Measurement range: 30 to 250° C. (for bisphenol), 150 to 250° C. (for polyarylate resin) and −30 to 350° C. (for (meth)acrylate compound) • atmosphere: Open, nitrogen: 40 ml/min

[2] = Refractive index and Abbe number (Abbe refractometer, NMP solutions extrapolated to 100% by weight); details: 20° C.; for Refractive index: 589 nm; for Abbe number: calculated from extrapolated refractive indices at 486, 589, 656 nm
Description: [5] Refractive Index and Abbe Number
The refractive index of each of the bisphenol, the polyarylate resin, the (meth)acrylate compound and the epoxy resin is a value determined using the following method and conditions. In addition, the Abbe number of each of the (meth)acrylate compound and the epoxy resin was calculated on the basis of the refractive index measured using the following method and conditions. • Apparatus: Abbe refractometer (“multiwavelength Abbe refractometer DR-2M” manufactured by ATAGO CO., LTD.) • Measurement wavelength: 589 nm (refractive index), 486, 589, 656 nm (Abbe number) • Measurement temperature: 20° C. • Refractive index of bisphenol: The bisphenol was dissolved in N-methyl-2-pyrrolidone (hereinafter, sometimes referred to as NMP) to prepare 5 wt %, 10 wt % and 15 wt % solutions, and the refractive index was measured for each of the solutions using the above-mentioned apparatus and conditions. Next, an approximate curve was derived from the obtained three measured values, and a value obtained by extrapolating the curve at 100% by weight was defined as a refractive index of each bisphenol. • Refractive index of polyarylate resin: A polyarylate resin powder was dissolved in NMP to prepare 1 wt %, 3 wt % and 5 wt % solutions, and the refractive index was measured for each of the solutions using the above-mentioned apparatus and conditions. Next, an approximate curve was derived from the obtained three measured values, and a value obtained by extrapolating the curve at 100% by weight was defined as a refractive index of each polyarylate resin. • Refractive index and Abbe number of (meth)acrylate compound: Each (meth)acrylate compound was dissolved in NMP to prepare a 5 wt %, 10 wt % and 15 wt % solutions (for Comparative Examples 4 and 5, 1 wt %, 3 wt % and 5 wt % solutions were prepared because the (meth)acrylate compound was hardly soluble in an organic solvent), and the refractive index at each wavelength was measured for each of the solutions using the above-mentioned apparatus and conditions. Next, an approximate curve was derived from the obtained three measured values, a value obtained by extrapolating the curve at 100% by weight was defined as a refractive index of each (meth)acrylate compound at each wavelength, and the Abbe number was calculated on the basis of the refractive index at each wavelength, which was determined as described above. • Refractive index and Abbe number of epoxy resin: Each epoxy resin was dissolved in NMP to prepare 5 wt %, 10 wt % and 15 wt % solutions, and the refractive index at each wavelength was measured for each of the solutions using the above-mentioned apparatus and conditions. Next, an approximate curve was derived from the obtained three measured values, a value obtained by extrapolating the curve at 100% by weight was defined as a refractive index of each epoxy resin at each wavelength, and the Abbe number was calculated on the basis of the refractive index at each wavelength, which was determined as described above.

[3] = Solubility test of (meth)acrylate compound; design: key: ◯: The sample is dissolved at room temperature.; Δ: The sample is dissolved when heated, and crystals are not precipitated even when the sample is cooled.; x: The sample is dissolved when heated, but crystals are precipitated when the sample is cooled, or the sample is not dissolved even when heated; details: for Solubility (30 mass % concentration) Monofunctional acrylate OPPEA: 30 parts by weight acrylate + 70 parts 2-phenylphenoxyethyl acrylate; for Solubility (30 mass % concentration) Solvent EA: 30 parts by weight acrylate + 70 parts ethyl acetate; for Solubility (30 mass % concentration) Monofunctional acrylate POB-A: 30 parts by weight acrylate + 70 parts m-phenoxybenzyl acrylate; for Solubility (30 mass % concentration) Solvent MEK: 30 parts by weight acrylate + 70 parts methyl ethyl ketone; for Solubility (30 mass % concentration) Solvent PGME: 30 parts by weight acrylate + 70 parts propylene glycol monomethyl ether; for Solubility (30 mass % concentration) Solvent PGMEA: 30 parts by weight acrylate + 70 parts propylene glycol monomethyl ether acetate
Description: (9-2) Solubility Test of (Meth)Acrylate Compound
30 parts by weight of the (meth)acrylate compound and 70 parts by weight of each of the diluents (solvent or monofunctional acrylate) shown in Table 3 were mixed, and solubility was evaluated on the basis of the following evaluation criteria.
◯: The sample is dissolved at room temperature.
Δ: The sample is dissolved when heated, and crystals are not precipitated even when the sample is cooled.
x: The sample is dissolved when heated, but crystals are precipitated when the sample is cooled, or the sample is not dissolved even when heated.

[4] = 5% weight loss temperature (thermogravimetric instrument); details: bisphenol; 10° C./min from room temperature to 500° C., nitrogen gas stream
Description: [6] 5% Weight Loss Temperature
Using a thermogravimetric instrument (TGA-50 from Shimadzu Corporation), measurement was performed with the temperature elevated at a rate of 10° C./min from room temperature to 500° C. under a nitrogen gas stream.

[5] = (meth)acrylate compound, 5, 10, 15 wt % NMP solutions (Comparative Examples 4 and 5: 1, 3, 5 wt %) extrapolated to 100% by weight
[6] = bisphenol, 5, 10, 15 wt % NMP solutions extrapolated to 100% by weight

Row | Tg [1] | Refractive index [2, 5] | Abbe number ([2]; (meth)acrylate compound) | Solubility (30 mass % concentration) Monofunctional acrylate OPPEA [3] | Solubility (30 mass % concentration) Solvent EA [3] | Solubility (30 mass % concentration) Monofunctional acrylate POB-A [3] | Solubility (30 mass % concentration) Solvent MEK [3] | Solubility (30 mass % concentration) Solvent PGME [3] | Solubility (30 mass % concentration) Solvent PGMEA [3] | Refractive index [2, 6] | 5% weight loss temperature [4] | Structure (SMILES)
1 |  |  |  |  |  |  |  |  |  | 1.67 | 306 °C | Oc1ccc(C2(c3ccc(O)c(-c4ccccc4)c3)c3ccccc3-c3ccccc32)cc1-c1ccccc1 [Comparative Example 1]
2 |  | 1.644 | 21.4 | x | x | x | x | x | x |  |  | C=CC(=O)Oc1ccc(C2(c3ccc(OC(=O)C=C)c(-c4ccccc4)c3)c3ccccc3-c3ccccc32)cc1-c1ccccc1 [Comparative Example 5]
3 |  |  |  |  |  |  |  |  |  | 1.65 | 363 °C | OCCOc1ccc(C2(c3ccc(OCCO)c(-c4ccccc4)c3)c3ccccc3-c3ccccc32)cc1-c1ccccc1 [Reference Example 1]

Further lines, the compound ahead of its results:

Row | Structure (SMILES) | Tg [1] | Refractive index [2, 5] | Abbe number ([2]; (meth)acrylate compound) | Solubility (30 mass % concentration) Monofunctional acrylate OPPEA [3] | Solubility (30 mass % concentration) Solvent EA [3] | Solubility (30 mass % concentration) Monofunctional acrylate POB-A [3] | Solubility (30 mass % concentration) Solvent MEK [3] | Solubility (30 mass % concentration) Solvent PGME [3] | Solubility (30 mass % concentration) Solvent PGMEA [3] | Refractive index [2, 6] | 5% weight loss temperature [4]
4 | C=CC(=O)Oc1c(Cc2ccccc2)cc(C2(c3cc(Cc4ccccc4)c(OC(=O)C=C)c(-c4ccccc4)c3)c3ccccc3-c3ccccc32)cc1-c1ccccc1 [Example 5] | 32.4 °C | 1.633 | 19.7 | ∘ | ∘ | ∘ | ∘ | ∘ | ∘ |  | 
5 | C=CC(=O)Oc1ccc(C2(c3ccc(OC(=O)C=C)c(C)c3)c3ccccc3-c3ccccc32)cc1C [Comparative Example 4] |  | 1.606 | 25.5 | x | x | x | x | x | x |  | 
6 | C=CC(=O)Oc1ccc2ccccc2c1-c1c(OC(=O)C=C)ccc2ccccc12 [Reference Example 2] |  | 1.632 | 19.0 | x | ∘ | x | ∘ | x | x |  | 
7 | Oc1c(Cc2ccccc2)cc(C2(c3cc(Cc4ccccc4)c(O)c(-c4ccccc4)c3)c3ccccc3-c3ccccc32)cc1-c1ccccc1 [Example 1] |  |  |  |  |  |  |  |  |  | 1.67 | 357 °C
8 | C=CC(=O)OCCOc1ccc(C2(c3ccc(OCCOC(=O)C=C)c(C)c3)c3ccccc3-c3ccccc32)cc1C [Comparative Example 6] | 0.0 °C | 1.591 | 23.1 | ∘ | ∘ | ∘ | ∘ | x | ∘ |  | 
